In general, IC50 refers to the concentration that gives 50% inhibition. The low end stands for greater potency in that assay, the high end for weaker potency in that assay.

For 1 compound, IC50 results are on record in BindingDB's records for doi:10.1021/jm3014635 (University of Nottingham, 2013).

The target of this test is T1, Accessory gene regulator protein A (Staphylococcus aureus, UniProt P0A0I7).
T1 sequence (P0A0I7 whole entry): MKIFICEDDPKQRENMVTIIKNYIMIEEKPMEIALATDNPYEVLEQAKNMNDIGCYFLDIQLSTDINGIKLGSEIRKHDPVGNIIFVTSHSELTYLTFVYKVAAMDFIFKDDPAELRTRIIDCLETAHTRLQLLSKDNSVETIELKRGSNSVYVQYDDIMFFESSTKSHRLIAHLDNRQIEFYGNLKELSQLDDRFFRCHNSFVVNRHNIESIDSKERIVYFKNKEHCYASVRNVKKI
As to the kind of experiment: Inhibition of Staphylococcus aureus RN6390B Agr-mediated RNA3 promoter activation measured up to 6 hrs by Northern blot analysis.

For `CCCCCCCCCC(=O)CC(=O)N[C@H]1CCOC1=O`, the IC50 came to 6 µM.
